Experimental data: ChEMBL document CHEMBL1123344, “N-Substituted sulfonamide carbonic anhydrase inhibitors with topical effects on intraocular pressure” (J Med Chem, 1986)

Tests used:
Oryctolagus cuniculus [1] = experiment: Compound was evaluated for the intraocular pressure (IOP) in normal rabbits following topical dosing after 50 min; type: functional, Eye
Oryctolagus cuniculus [2] = experiment: Compound was evaluated for the intraocular pressure (IOP) in normal rabbits following topical dosing after 20 min; type: functional, Eye
Oryctolagus cuniculus [3] = experiment: Compound was evaluated for the intraocular pressure (IOP) in normal rabbits following topical dosing after 100 min; type: functional, Eye
Carbonic anhydrase [4] = target: Carbonic anhydrase
Oryctolagus cuniculus [5] = experiment: Compound was evaluated for the intraocular pressure (IOP) in normal rabbits following topical dosing after 120 min; type: functional, Eye
Oryctolagus cuniculus [6] = experiment: Compound was evaluated for the intraocular pressure (IOP) in normal rabbits following topical dosing after 110 min; type: functional, Eye
Oryctolagus cuniculus [7] = experiment: Compound was evaluated for the intraocular pressure (IOP) in normal rabbits following topical dosing after 40 min; type: functional, Eye
Oryctolagus cuniculus [8] = experiment: Compound was evaluated for the intraocular pressure (IOP) in normal rabbits following topical dosing after 80 min; type: functional, Eye
Oryctolagus cuniculus [9] = experiment: Compound was evaluated for the intraocular pressure (IOP) in normal rabbits following topical dosing after 70 min; type: functional, Eye
Oryctolagus cuniculus [10] = experiment: Compound was evaluated for the intraocular pressure (IOP) in normal rabbits following topical dosing after 30 min; type: functional, Eye
Oryctolagus cuniculus [11] = experiment: Compound was evaluated for the intraocular pressure (IOP) in normal rabbits following topical dosing after 60 min; type: functional, Eye
Oryctolagus cuniculus [12] = experiment: Compound was evaluated for the intraocular pressure (IOP) in normal rabbits following topical dosing after 90 min; type: functional, Eye
Oryctolagus cuniculus [13] = experiment: Compound was evaluated for the intraocular pressure (IOP) in normal rabbits following topical dosing after 10 min; type: functional, Eye
[14] = buffer, pH 7.2
Description: Solubility, pH 7.2 phosphate buffer at 32 degree C

physchem [15] = experiment: physchem
Description: Compound was evaluated for pKa

physchem [16] = conditions: octanol/pH 7.2 phosphate buffer
Description: Compound was evaluated for Octanol/pH 7.2 phosphate buffer distribution coefficient

Carbonic anhydrase [17] = experiment: Compound was evaluated for the inhibition of Carbonic anhydrase (Competitive); type: protein assay
Oryctolagus cuniculus [18] = experiment: Compound was evaluated for the intraocular pressure (IOP) in normal rabbits following topical dosing after 180 min; type: functional, Eye
Oryctolagus cuniculus [19] = experiment: Compound was evaluated for the intraocular pressure (IOP) in normal rabbits following topical dosing after 140 min; type: functional, Eye
Oryctolagus cuniculus [20] = experiment: Compound was evaluated for the intraocular pressure (IOP) in normal rabbits following topical dosing after 160 min; type: functional, Eye

| Ki (Carbonic anhydrase [4]) [nM] | Solubility [14] [M l-1] | pKa (physchem [15]) | logD (physchem [16]) | Papp [×10⁻⁶ cm/s] | Structure (SMILES) | IOP (Oryctolagus cuniculus [2]) [mmHg] | IOP (Oryctolagus cuniculus [3]) [mmHg] | IOP (Oryctolagus cuniculus [5]) [mmHg] | IOP (Oryctolagus cuniculus [7]) [mmHg] | IOP (Oryctolagus cuniculus [8]) [mmHg] | IOP (Oryctolagus cuniculus [11]) [mmHg] | also measured |
| --- | --- | --- | --- | --- | --- | --- | --- | --- | --- | --- | --- | --- |
| 44 |  |  |  |  | CN(O)S(=O)(=O)c1ccc([N+](=O)[O-])cc1 | -0.33 | -0.5 | -1 | -1.67 | -1.67 | -1.67 | IOP (Oryctolagus cuniculus [1]): -1.83 mmHg; IOP (Oryctolagus cuniculus [6]): -0.33 mmHg; IOP (Oryctolagus cuniculus [9]): -2 mmHg; IOP (Oryctolagus cuniculus [10]): -0.67 mmHg; IOP (Oryctolagus cuniculus [12]): 0.2 mmHg; IOP (Oryctolagus cuniculus [13]): 0.33 mmHg |
| 146 |  |  |  |  | CNS(=O)(=O)c1ccc([N+](=O)[O-])cc1 |  |  |  |  |  |  |  |
|  | 0.00144 | 7.52 | 0.32 | 2.26 | CNS(=O)(=O)c1nnc(NC(C)=O)s1 |  |  |  |  |  |  | Ki (Carbonic anhydrase [17]): 258 nM |
| 107 |  |  |  |  | CN(O)S(=O)(=O)c1ccc(Cl)cc1 | 0.17 | 0.67 | 0.33 | 1 | 0.17 | -1.25 | IOP (Oryctolagus cuniculus [18]): -0.25 mmHg; IOP (Oryctolagus cuniculus [19]): -0.33 mmHg; IOP (Oryctolagus cuniculus [20]): -0.25 mmHg |
| 584 | 0.0208 | 11 | 1.92 | 65.1 | CNS(=O)(=O)c1ccc(Cl)cc1 |  |  |  |  |  |  |  |
|  | 0.0223 | 9.95 | 1.24 | 54.7 | NS(=O)(=O)c1ccc(Cl)cc1 [P-CHLOROBENZENESULFONAMIDE] |  |  |  |  |  |  |  |
